Like-named read-outs stand apart in the source and are kept apart here.
How the values were obtained:
HepG2 cells [1] = conditions: Homo sapiens, HepG2, read-out: ACLY HepG2 14C-Pyruvate Assay serum free IC50 Cholesterol (IC50) [μM]
Description: ACLY HepG2 ^14C-Pyruvate Incorporation Serum-Free Assay (IC50 Cholesterol and Fatty Acid Synthesis)
Compounds of the present invention were evaluated in a HepG2 ^14C-pyruvate incorporation assay. The protocol below was followed:
(§1) After 48 hours, change medium with fresh growth medium.
(§2) After 18 hours, replaced medium using 0.5 mL fresh medium (5.5 mM Glucose, without FBS, 1% PS, without Pyruvate) containing Compounds or 0.5% DMSO, incubated at 37° C., 5% CO2 for 1 hour.
(§3) Add 3 μci of [14C]-pyruvate per well to the cell samples were incubated at 37° C., 5% CO2 for 5 hours.
Medium was removed and placed into a 15 mL centrifuge tube. Add 0.5 mL of 0.1M NaOH to each well and then transfer the cell lysates into the corresponding 15 mL centrifuge tubes. 1.0 mL of EtOH and 0.17 mL 50% KOH were added to 15 mL tubes containing medium and cell suspensions, then shaking tube gently. […] Saponification 15 mL tubes containing medium and cell suspensions were incubated at 90° C. for 1 hour, then cooled to room temperature. […] Cholesterol Extraction 5 mL of petroleum ether was added per tube to extract Cholesterol, shaken vigorously, centrifuged at 1000 rpm for 5 min, and ˜5 mL of the petroleum ether layer was transferred to a new glass tube (18*180 mm). […] Acidification The samples in 15 mL tube were acidified directly with 1 mL concentrated HCl, make sure pH was below 1. […] Fatty Acids Extraction 5 mL of petroleum ether was added per tube, shaken vigorously, centrifuged at 1000 rpm for 5 min, 5 mL of the petroleum ether layer was transferred to the corresponding glass tube. […] Count The petroleum ether extracts were pooled and evaporated to dryness overnight. The residue from the petroleum ether fractions were resuspended in 500 μL of chloroform-hexane (1:1) containing 420 μg of linoleic acid as a carrier. Add 200 μL of resuspending (chloroform-hexane (1:1) containing 168 μg of linoleic acid) to 2 mL Ultima Gold™, after 30 min, count on a scintillation counter.

HepG2 cells [2] = conditions: Homo sapiens, HepG2, read-out: ACLY HepG2 14C-Pyruvate Assay serum free IC50 FA (IC50) [μM]
Description: ACLY HepG2 ^14C-Pyruvate Incorporation Serum-Free Assay (IC50 Fatty
The protocol of the assay (below) was followed:
as §1, §2, §3
Medium was removed and placed into a 15 mL centrifuge tube. Add 0.5 mL of 0.1M NaOH to each well and then transfer the cell lysates into the corresponding 15 mL centrifuge tubes. 1.0 mL of EtOH and 0.17 mL 50% KOH were added to 15 mL tubes containing medium and cell suspensions, then shaking tube gently. […] Saponification 15 mL tubes containing medium and cell suspensions were incubated at 90° C. for 1 hour, then cooled to room temperature. […] Cholesterol Extraction 5 mL of petroleum ether was added per tube to extract Cholesterol, shaken vigorously, centrifuged at 1000 rpm for 5 min, and ˜5 mL of the petroleum ether layer was transferred to a new glass tube (18*180 mm). […] Acidification The samples in 15 mL tube were acidified directly with 1 mL concentrated HCl, make sure pH was below 1. […] Fatty Acids Extraction 5 mL of petroleum ether was added per tube, shaken vigorously, centrifuged at 1000 rpm for 5 min, 5 mL of the petroleum ether layer was transferred to the corresponding glass tube. […] Repeat the Step 8 10. Count The petroleum ether extracts were pooled and evaporated to dryness overnight. The residue from the petroleum ether fractions were resuspended in 500 μL of chloroform-hexane (1:1) containing 420 μg of linoleic acid as a carrier. Add 200 μL of resuspending (chloroform-hexane (1:1) containing 168 μg of linoleic acid) to 2 mL Ultima Gold™, after 30 min, count on a scintillation counter.

ACL [3] = molecular target: T1, ACL (Homo sapiens (Human), UniProt P53396); experiment: ACLY-MDH Coupled Assay
Target sequence in this assay (P53396 whole entry, species assumed): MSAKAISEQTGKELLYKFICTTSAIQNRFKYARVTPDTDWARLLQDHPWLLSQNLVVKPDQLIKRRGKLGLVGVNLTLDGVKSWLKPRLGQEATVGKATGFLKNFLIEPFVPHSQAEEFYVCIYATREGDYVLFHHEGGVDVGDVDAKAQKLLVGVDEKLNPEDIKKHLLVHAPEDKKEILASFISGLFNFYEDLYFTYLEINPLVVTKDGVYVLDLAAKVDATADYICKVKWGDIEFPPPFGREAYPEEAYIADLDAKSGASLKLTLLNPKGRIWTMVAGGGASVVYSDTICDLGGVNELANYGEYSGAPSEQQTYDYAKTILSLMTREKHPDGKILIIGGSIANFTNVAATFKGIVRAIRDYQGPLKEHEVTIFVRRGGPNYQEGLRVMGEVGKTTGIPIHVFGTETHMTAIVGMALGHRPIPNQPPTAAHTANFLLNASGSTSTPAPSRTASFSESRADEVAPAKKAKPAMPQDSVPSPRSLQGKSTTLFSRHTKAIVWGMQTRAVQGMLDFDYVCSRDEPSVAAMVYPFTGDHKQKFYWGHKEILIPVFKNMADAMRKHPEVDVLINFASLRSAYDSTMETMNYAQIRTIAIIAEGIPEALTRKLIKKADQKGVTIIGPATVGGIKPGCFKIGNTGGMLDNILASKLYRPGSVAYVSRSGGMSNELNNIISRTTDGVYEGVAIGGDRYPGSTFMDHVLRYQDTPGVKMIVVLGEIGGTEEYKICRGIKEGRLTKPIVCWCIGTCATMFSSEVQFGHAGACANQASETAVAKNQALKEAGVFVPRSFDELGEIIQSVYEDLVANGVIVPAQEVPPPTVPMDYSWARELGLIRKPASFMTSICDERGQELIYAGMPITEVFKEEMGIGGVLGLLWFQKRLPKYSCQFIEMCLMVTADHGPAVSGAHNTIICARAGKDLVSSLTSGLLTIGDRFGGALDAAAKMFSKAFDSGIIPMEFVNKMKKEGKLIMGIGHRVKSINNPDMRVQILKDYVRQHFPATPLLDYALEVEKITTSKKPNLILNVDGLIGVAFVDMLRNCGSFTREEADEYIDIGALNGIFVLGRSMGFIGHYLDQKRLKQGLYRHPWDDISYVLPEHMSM
Description: Compounds of the present invention were evaluated in an ACLY Coupled Assay.
The assay protocol for the Coupled Assay (below) was followed:
b) Add 1 μL cpds to 96 assay plate, Test cpd conc: 100/30/10 μM top dose, 3 folds dilution, 10+0+control (control: buffer without ACL+DMSO) points, 1000 rpm for 1 min, incubation at 25° C. for 60 min

ACL [4] = molecular target: T1, ACL; experiment: ADP-Glo Assay
Target sequence in this assay (P53396 other isoform, or with tags, fused parts or gaps isoform P53396-2): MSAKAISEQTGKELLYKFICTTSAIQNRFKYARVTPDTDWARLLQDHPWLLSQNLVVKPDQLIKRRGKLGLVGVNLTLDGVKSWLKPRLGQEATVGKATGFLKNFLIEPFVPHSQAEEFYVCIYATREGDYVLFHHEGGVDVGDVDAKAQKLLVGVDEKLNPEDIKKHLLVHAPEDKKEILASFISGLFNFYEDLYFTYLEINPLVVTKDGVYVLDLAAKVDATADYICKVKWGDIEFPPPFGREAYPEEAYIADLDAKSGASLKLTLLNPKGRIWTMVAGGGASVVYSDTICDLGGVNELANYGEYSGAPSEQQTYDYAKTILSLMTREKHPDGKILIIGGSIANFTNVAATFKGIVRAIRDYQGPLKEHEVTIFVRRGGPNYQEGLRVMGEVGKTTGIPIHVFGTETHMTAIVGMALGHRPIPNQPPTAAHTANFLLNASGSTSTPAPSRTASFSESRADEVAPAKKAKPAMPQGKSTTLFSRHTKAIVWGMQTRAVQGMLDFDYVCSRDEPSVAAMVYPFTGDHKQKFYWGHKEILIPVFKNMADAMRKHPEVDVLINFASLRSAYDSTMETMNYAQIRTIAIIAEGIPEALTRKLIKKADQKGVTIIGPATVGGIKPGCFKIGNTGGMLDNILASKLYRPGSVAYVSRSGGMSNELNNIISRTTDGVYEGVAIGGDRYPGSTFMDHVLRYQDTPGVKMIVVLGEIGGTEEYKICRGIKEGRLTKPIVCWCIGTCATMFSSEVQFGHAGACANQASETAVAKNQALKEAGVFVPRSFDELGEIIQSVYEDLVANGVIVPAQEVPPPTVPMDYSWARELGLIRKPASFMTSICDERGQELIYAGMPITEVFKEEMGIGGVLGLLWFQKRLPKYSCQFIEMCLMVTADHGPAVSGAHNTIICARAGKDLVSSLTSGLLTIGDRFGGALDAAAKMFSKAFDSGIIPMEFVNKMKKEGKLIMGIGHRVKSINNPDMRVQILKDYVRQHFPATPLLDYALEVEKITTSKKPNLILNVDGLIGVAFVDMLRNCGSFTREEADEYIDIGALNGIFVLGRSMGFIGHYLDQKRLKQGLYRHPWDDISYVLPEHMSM

[5] = read-out: ACL-MDH Coupled Assay (IC50), 8 nM ACL, 60 μM CoA Na2, 85 μM Citrate, 250 μM ATP, 250 μM NADH
[6] = read-out: ACL-ADP-Glo (IC50), 3 nM ACL, 15 μM ATP, 3 μM CoA, 300 μM Citrate

Row | IC50 (HepG2 cells [1]) [µM] | IC50 (HepG2 cells [2]) [µM] | IC50 (ACL [3]; [5]) [nM] | IC50 (ACL [4]; [6]) [nM] | IC50 (ACL [3]) [nM] | IC50 (ACL [4]) [nM] | Structure (SMILES)
1 | 1 to 5 | > 10 | < 50 | < 50 | – | – | COC(=O)c1cc(Cl)c(O)c(S(=O)(=O)Nc2cc(C3CC3)c(F)cc2F)c1 [I-127, Methyl 3-chloro-5-[(5-cyclopropyl-2,4-difluorophenyl)sulfamoyl]-4-hydroxybenzoate]
2 | 1 to 5 | > 10 | – | – | 50 to 500 | 50 to 500 | O=S(=O)(Nc1cc(-c2ccccc2)c(F)cc1F)c1cc(CO)cc(Cl)c1O [I-90, 3-chloro-N-(2,4-difluoro-5-phenylphenyl)-2-hydroxy-5-(hydroxymethyl)benzene-1-sulfonamide]
3 | 5 to 20 | > 10 | – | – | 50 to 500 | 50 to 500 | O=c1[nH]cc(Cl)cc1S(=O)(=O)Nc1cc(-c2ccccc2)c(F)cc1F [I-298, 5-chloro-N-[4,6-difluoro-[1,1-biphenyl]-3-yl]-2-oxo-1,2-dihydropyridine-3-sulfonamide]
4 | < 1 | 1 to 10 | < 50 | < 50 | – | – | COC(=O)c1cc(Cl)c(O)c(S(=O)(=O)Nc2cc(-c3cccs3)ccc2F)c1 [I-60, Methyl 3-chloro-5-[[2-fluoro-5-(thiophen-2-yl)phenyl]sulfamoyl]-4-hydroxybenzoate]
5 | 1 to 5 | > 10 | – | – | 500 to 30000 | 500 to 20000 | O=C(O)c1c(NS(=O)(=O)c2cc(Cl)cc(Cl)c2)sc2ccccc12 [I-361, 2-((3,5-dichlorophenyl)sulfonamido)benzo[b]thiophene-3-carboxylic acid]
6 | 1 to 5 | > 10 | < 50 | < 50 | – | – | COC(=O)c1cc(Cl)c(O)c(S(=O)(=O)Nc2cc(-c3ccccc3)cc(F)c2F)c1 [I-111, Methyl 3-chloro-5-[(2,3-difluoro-5-phenylphenyl)sulfamoyl]-4-hydroxybenzoate]
7 | 1 to 5 | 1 to 10 | – | – | 50 to 500 | 50 to 500 | COc1ccc(-c2ccccc2)cc1NS(=O)(=O)c1c(C)c(Cl)cc(Cl)c1O [I-1, 3,5-dichloro-2-hydroxy-N-(4-methoxy-[1,1′-biphenyl]-3-yl)-6-methylbenzenesulfonamide]
8 | 1 to 5 | > 10 | < 50 | < 50 | – | – | O=S(=O)(Nc1cc(-c2ccccc2)c(F)cc1F)c1cc(-c2ncco2)cc(Cl)c1O [I-116, 3-chloro-N-[4,6-difluoro-[1,1-biphenyl]-3-yl]-2-hydroxy-5-(1,3-oxazol-2-yl)benzene-1-sulfonamide]
9 | 5 to 20 | 1 to 10 | – | – | 50 to 500 | 500 to 20000 | O=C(O)c1ccc(-c2ccccc2)cc1NS(=O)(=O)c1cc(F)cc(Cl)c1 [I-233, 3-((3-chloro-5-fluorophenyl)sulfonamido)-[1,1′-biphenyl]-4-carboxylic acid]
10 | 1 to 5 | > 10 | < 50 | < 50 | – | – | CON(C)C(=O)c1cc(Cl)c(O)c(S(=O)(=O)Nc2cc(-c3ccccc3)c(F)cc2F)c1 [I-87, 3-chloro-5-[(2,4-difluoro-5-phenylphenyl)sulfamoyl]-4-hydroxy-N-methoxy-N-methylbenzamide]
11 | 1 to 5 | 1 to 10 | < 50 | < 50 | – | – | O=S(=O)(Nc1cc(-c2ccccc2)c(F)cc1F)c1cc(C(F)(F)F)cc(Cl)c1O [I-117, 3-chloro-N-(4,6-difluoro-[1,1′-biphenyl]-3-yl)-2-hydroxy-5-(trifluoromethyl)benzenesulfonamide]
12 | 1 to 5 | 1 to 10 | – | – | 500 to 30000 | 500 to 20000 | O=C(Nc1cc(-c2ccccc2)ccc1C(=O)O)c1cc(Cl)cc(C(F)(F)F)c1 [I-349, 3-(3-chloro-5-(trifluoromethyl)benzamido)-[1,1′-biphenyl]-4-carboxylic Acid]
13 | 5 to 20 | > 10 | < 50 | < 50 | – | – | COC(=O)c1cc(Cl)c(O)c(S(=O)(=O)Nc2cc(-c3cc4ccccc4s3)c(F)cc2F)c1 [I-128, Methyl 3-[[5-(1-benzothiophen-2-yl)-2,4-difluorophenyl]sulfamoyl]-5-chloro-4-hydroxybenzoate]
14 | – | – | – | – | 500 to 30000 | 50 to 500 | O=C(c1cc(Cl)c(O)c(S(=O)(=O)Nc2cc(-c3ccccc3)ncc2F)c1)N1CCC1 [I-222, 5-(azetidine-1-carbonyl)-3-chloro-N-(5-fluoro-2-phenylpyridin-4-yl)-2-hydroxybenzene-1-sulfonamide]
15 | – | – | – | – | 500 to 30000 | 500 to 20000 | COc1cc(F)c(-c2cc3ccccc3s2)cc1NS(=O)(=O)c1cc(C(=O)O)cc(Cl)c1O [I-510]
16 | – | – | < 50 | < 50 | – | – | CO[C@H]1CCN(C(=O)c2cc(Cl)c(O)c(S(=O)(=O)Nc3cc(-c4ccccc4)ccc3F)c2)C1 [I-142, 3-chloro-N-[4-fluoro-[1,1-biphenyl]-3-yl]-2-hydroxy-5-[(3S)-3-methoxypyrrolidine-1-carbonyl]benzene-1-sulfonamide]

Row | IC50 (HepG2 cells [1]) [µM] | IC50 (HepG2 cells [2]) [µM] | IC50 (ACL [3]; [5]) [nM] | IC50 (ACL [4]; [6]) [nM] | IC50 (ACL [3]) [nM] | IC50 (ACL [4]) [nM] | Structure (SMILES)
17 | – | – | – | – | 500 to 30000 | 500 to 20000 | COC(=O)c1cc(Cl)c(OC)c(S(=O)(=O)Nc2cc(-c3ccccc3)ccc2F)c1 [I-49, Methyl 3-chloro-5-(N-(4-fluoro-[1,1′-biphenyl]-3-yl)sulfamoyl)-4-methoxybenzoate]
18 | – | – | – | – | 500 to 30000 | 500 to 20000 | O=C(O)c1ccc(-c2ccccc2)cc1NS(=O)(=O)c1ccccc1-c1ccno1 [I-336]
19 | – | – | – | – | 500 to 30000 | 50 to 500 | Cn1ccnc1-c1cc(Cl)c(O)c(S(=O)(=O)Nc2cc(-c3ccccc3)ccc2O)c1 [I-133, 3-chloro-2-hydroxy-N-(4-hydroxy-[1,1′-biphenyl]-3-yl)-5-(1-methyl-1H-imidazol-2-yl)benzenesulfonamide]
20 | – | – | – | – | 500 to 30000 | 50 to 500 | O=C(c1cc(Cl)c(O)c(S(=O)(=O)Nc2cc(-c3ccccc3)c(F)cc2F)c1)N1Cc2ccccc2C1 [I-100, 3-chloro-N-(4,6-difluoro-[1,1′-biphenyl]-3-yl)-2-hydroxy-5-(isoindoline-2-carbonyl)benzenesulfonamide]
21 | – | – | 50 to 500 | 50 to 500 | – | – | O=c1[nH]cc(Cl)cc1S(=O)(=O)Nc1cc(-c2ccccc2)c(F)cc1F [I-326, 5-chloro-N-(4,6-difluoro-[1,1′-biphenyl]-3-yl)-2-oxo-1,2-dihydropyridine-3-sulfonamide]
22 | – | – | – | – | 500 to 30000 | 500 to 20000 | CC(=O)N1CCc2cc(Br)c(S(=O)(=O)Nc3cc(-c4ccccc4)ccc3C(=O)O)cc21 [I-338]
23 | – | – | – | – | 500 to 30000 | 500 to 20000 | O=C(O)c1ccc(-c2ccccc2)cc1NS(=O)(=O)c1cc(Cl)c[nH]c1=O [I-350, 3-((5-chloro-2-oxo-1,2-dihydropyridine)-3-sulfonamido)-[1,1′-biphenyl]-4-carboxylic acid]
24 | – | – | – | – | 500 to 30000 | 500 to 20000 | O=C(O)c1ccc(-c2ccccc2)cc1NS(=O)(=O)c1c(Cl)nc2ccc(Br)cn12 [I-334]
25 | – | – | < 50 | < 50 | – | – | NC1CN(C(=O)c2cc(Cl)c(O)c(S(=O)(=O)Nc3cc(-c4cc5ccccc5s4)c(F)cc3F)c2)C1 [I-282, 5-(3-aminoazetidine-1-carbonyl)-N-(5-(benzo[b]thiophen-2-yl)-2,4-difluorophenyl)-3-chloro-2-hydroxybenzenesulfonamide]
26 | – | – | – | – | 50 to 500 | 50 to 500 | CNC(=O)c1cc(Cl)c(O)c(S(=O)(=O)Nc2cc(-c3ccccc3)c(F)cc2F)c1 [I-92, 3-chloro-5-[(2,4-difluoro-5-phenylphenyl)sulfamoyl]-4-hydroxy-N-methylbenzamide]
27 | – | – | – | – | 500 to 30000 | 500 to 20000 | O=C(O)c1ccc(-c2ccccc2)cc1NS(=O)(=O)CC1Cc2ccccc2C1 [I-328]
28 | – | – | – | – | 500 to 30000 | 500 to 20000 | CC(C)(C)C1CCN(S(=O)(=O)Nc2cc(-c3ccccc3)ccc2C(=O)O)CC1 [I-327]
29 | – | – | – | – | 500 to 30000 | 500 to 20000 | CN(C(=O)c1cc(Cl)cc(Cl)c1)c1cc(-c2ccccc2)ccc1C(=O)O [I-347, 3-(3,5-dichloro-N-methylbenzamido)-[1,1′-biphenyl]-4-carboxylic Acid]
30 | – | – | – | < 50 | 50 to 500 | – | O=C(c1cc(Cl)c(O)c(S(=O)(=O)Nc2cc(-c3ccccc3)c(F)cc2F)c1)N1CC[C@@H](F)C1 [I-119, (R)-3-chloro-N-(4,6-difluoro-[1,1′-biphenyl]-3-yl)-5-(3-fluoropyrrolidine-1-carbonyl)-2-hydroxybenzenesulfonamide]
31 | – | – | – | – | 500 to 30000 | 500 to 20000 | O=C(O)c1ccc(-c2ccccc2)cc1NS(=O)(=O)Cc1cc(Cl)cc(Cl)c1 [I-305, 3-(((3,5-dichlorophenyl)methyl)sulfonamido)-[1,1′-biphenyl]-4-carboxylic acid]

Row | Structure (SMILES) | IC50 (HepG2 cells [1]) [µM] | IC50 (HepG2 cells [2]) [µM] | IC50 (ACL [3]; [5]) [nM] | IC50 (ACL [4]; [6]) [nM] | IC50 (ACL [3]) [nM] | IC50 (ACL [4]) [nM]
32 | COc1ccc(-c2ccccc2)cc1NS(=O)(=O)c1cc(C(=O)N2CCC2)cc(Cl)c1O [I-145, 5-(azetidine-1-carbonyl)-3-chloro-2-hydroxy-N-[4-methoxy-[1,1-biphenyl]-3-yl]benzene-1-sulfonamide] | 1 to 5 | > 10 | < 50 | < 50 | – | –
33 | O=C(c1cc(Cl)c(O)c(S(=O)(=O)Nc2cc(-c3cc4ccccc4s3)c(F)cc2F)c1)N1CCC1 [I-138, 5-(azetidine-1-carbonyl)-N-[5-(1-benzothiophen-2-yl)-2,4-difluorophenyl]-3-chloro-2-hydroxybenzene-1-sulfonamide] | 1 to 5 | 1 to 10 | < 50 | < 50 | – | –
34 | CN(C)C(=O)c1cc(Cl)c(O)c(S(=O)(=O)Nc2cc(-c3ccccc3)c(F)cc2F)c1 [I-83, 3-chloro-5-[(2,4-difluoro-5-phenylphenyl)sulfamoyl]-4-hydroxy-N,N-dimethylbenzamide] | 1 to 5 | > 10 | – | – | – | –

Reference: patent US11555012B2 (Nimbus Artemis, Inc., priority 2018, dated 2023)
